Laboratory results: patent US6403617B1, “Diaminopyridine-containing thiourea inhibitors of herpes viruses” (American Home Products Corp., priority 1998, dated 2002)
In brackets after ≈: the same amount, converted by molar mass.

Assays:
VZV strain Ellen = assay: VZV Antiviral (ELISA) Assay; assay type: cell-based, varicella-zoster virus; conditions: human foreskin fibroblast cells, three days; for IC50 / inhibition at 10 µg/mL: Human alphaherpesvirus 3, 72 h; for IC50: read-out: IC50 (ug/ml) VZV; for inhibition at 10 µg/mL: read-out: % inhibition 10 ug/ml VZV, 10 ug/ml
Method: For the generation of stock VZV to be used in the assay, VZV strain Ellen (ATCC #VR-1367) is used to infect human foreskin fibroblast (HFF) cells at low multiplicity (less than 0.1) and incubated overnight at 37° C. in 5% CO2. After the overnight incubation, the mixture of uninfected and VZV-infected HFF infected cells are then harvested and added to each well of 96-well plates (3.5×10^4 cells in 100 μl DMEM supplemented with 2% FBS) which contain test compound or the reference standard drug control (in 100 μl DMEM supplemented with 2% FBS per well). These cells are incubated for three days at 37° C. in 5% CO2, then fixed for ELISA assay. The primary antibody is murine anti-VZV glycoprotein II monoclonal antibody (Applied Biosystems, Inc. #13-145-100) and the secondary antibody is goat anti-mouse IgG linked to β-galactosidase. Thus the extent of viral replication is determined by assessing β-galactosidase activity by quantifying the generation of the 4-methyl umbelliferone fluorescent cleavage product after addition of the methyl umbelliferyl-β-D-galactoside (Sigma #M1633) substrate on a microfluorimeter (365 nm for excitation and 450 nm for emission). Antiviral activity (IC50) of the test compound is determined by comparing the flourescence obtained in absence of compound to that obtained in the presence of compound.

HCMV wild-type = assay: HCMV yield assay; assay type: cell-based, Human Cytomegalovirus; conditions: human foreskin fibroblasts, reduction of virus yield by 50%; for IC50: Human betaherpesvirus 5, Fibroblast, read-out: IC50 (ug/ml) HCMV
Method: Yield assay. Monolayer cultures of human foreskin fibroblasts are infected with HCMV wild-type, typically at a multiplicity of infection equal to 0.2, in the presence of inhibitor compound (varying concentrations). At three days post-infection, total virus produced in these cultures (i.e. virus yield) is assessed by harvesting and titering the virus in 12-well plates of cultured human foreskin fibroblasts (done in the absence of inhibitor). Plaques are quantified at 2 weeks post-infection. An inhibitor of HCMV is identified by the reduction in titer of virus yield in the presence, compared to the titer in the absence of compound. In this assay, the relative anti-HCMV activity of an inhibitor is typically determined by calculating the IC50 or IC90 value, that is, the amount of compound required to reduce the virus yield by 50% or 90%, respectively. Table I describes IC50 data for compounds tested against HCMV.

HSV-1 = assay: HSV Antiviral (ELISA) Assay; assay type: cell-based, herpes simplex virus type 1; conditions: Human alphaherpesvirus 1; Vero cells, HSV-1, about 24 hours post-infection; read-out: IC50 (ug/ml) HSV
Method: Vero cells (ATCC #CCL-81) are plated on 96-well tissue cultugre plates at 3.5×10^4 cells per 100 μl tissue culture DMEM (Dulbecco's modified Eagle media) supplemented with 2% fetal bovine serum (FBS) in each well. After overnight incubation @ 37° C. (in 5% CO2) and 30 minutes prior to infection with HSV-1 (multiplicity of infection equal to 0.006), cells are either untreated, or treated with test compound (multiple concentrations) or reference standard drug control. After approximately 24 hours post-infection incubation @ 37° C. (in 5% CO2), cells are fixed for ELISA assay. The primary antibody is murine anti-HSV glycoprotein D monoclonal primary antibody and the secondary antibody is goat anti-mouse IgG linked to β-galactosidase. Thus the extent of viral replication is determined by assessing β-galactosidase activity by quantifying the generation of the 4-methyl umbelliferone fluorescent cleavage product after addition of the methyl umbelliferyl-β-D-galactoside (Sigma #M1633) substrate on a microfluorimeter (365 nm for excitation and 450 nm for emission). Antiviral activity (IC50) of the test compound is determined by comparing the flourescence obtained in absence of compound to that obtained in the presence of compound.

Molecule | IC50 (VZV strain Ellen) [µg/mL] | IC50 (HCMV wild-type) [µg/mL] | IC50 (ug/ml) VZV (VZV strain Ellen) [µg/mL] | IC50 (ug/ml) HCMV (HCMV wild-type) [µg/mL] | inhibition at 10 µg/mL (VZV strain Ellen) [%] | IC50 (HSV-1) [µg/mL]
CC(NC(=S)Nc1ccc(NC(=O)c2cscn2)nc1)c1cccc(C(F)(F)F)c1 (stereo not drawn) [Example 824, N-(5-{[({1-[3-(trifluoromethyl)phenyl]ethyl}amino)carbothioyl]amino}-2-pyridinyl)-1,3-thiazole-4-carboxamide] | 3.2 (≈ 7.09 µM) | 0.004 (≈ 0.00886 µM) |  |  |  | 
CC(NC(=S)Nc1ccc(NC(=O)c2cscn2)nc1)c1ccccc1Br (stereo not drawn) [Example 823, N-{5-[({[1-(2-bromophenyl)ethyl]amino}carbothioyl)amino]-2-pyridinyl}-1,3-thiazole-4-carboxamide] | > 7.5 | 0.05 (≈ 0.108 µM) |  |  |  | 
C[C@H](NC(=O)Nc1ccc(NC(=O)c2cscn2)nc1)c1cc(C(F)(F)F)cc(C(F)(F)F)c1 [Example 821, N-(5-{[({(1S)-1-[3,5-bis(trifluoromethyl)phenyl]ethyl}amino)carbonyl]amino}-2-pyridinyl)-1,3-thiazole-4-carboxamide] | > 7.5 | 0.014 (≈ 0.0278 µM) |  |  |  | 
C[C@H](NC(=S)Nc1ccc(NC(=O)c2cscn2)nc1)c1cc(C(F)(F)F)cc(C(F)(F)F)c1 [Example 817, N-(5-{[({(1S)-1-[3,5-bis(trifluoromethyl)phenyl]ethyl}amino)carbothioyl]amino}-2-pyridinyl)-1,3-thiazole-4-carboxamide] | > 7.5 | 0.001 (≈ 0.00192 µM) |  |  |  | 
CC(NC(=S)Nc1ccc(NC(=O)c2cscn2)nc1)c1ccc(Cl)c(F)c1 (stereo not drawn) [Example 826, N-{5-[({[1-(4-chloro-3-fluorophenyl)ethyl]amino}carbothioyl)amino]-2-pyridinyl}-1,3-thiazole-4-carboxamide] | 0.86 (≈ 1.97 µM) | 0.02 (≈ 0.0459 µM) |  |  |  | 
N-{6-[({[1-(4-fluorophenyl)ethyl]amino}carbothioyl)amino]-3-pyridinyl}-1,2,3-thiadiazole-4-carboxamide [Example 828] |  |  | >7.5 | 0.45 |  | 
COc1cc(OC)c(NC(=S)Nc2ccc(NC(=O)c3ccco3)cn2)cc1Cl [Example 512, Furan-2-carboxylic acid {6-[3-(5-chloro-2,4-dimethoxy-phenyl)-thioureido]-pyridin-3-yl}-amide] | 4 (≈ 9.24 µM) | 0.7 (≈ 1.62 µM) |  |  | 70 | 0.5 (≈ 1.16 µM)
CC(NC(=S)Nc1ccc(NC(=O)c2cscn2)nc1)c1cc(C(F)(F)F)ccc1F (stereo not drawn) [Example 818, N-(5-{[({1-[2-fluoro-5-(trifluoromethyl)phenyl]ethyl}amino)carbothioyl]amino}-2-pyridinyl)-1,3-thiazole-4-carboxamide] | > 7.5 | 0.0022 (≈ 0.00469 µM) |  |  |  | 
C[C@H](NC(=S)Nc1ccc(NC(=O)c2csnn2)nc1)c1cc(C(F)(F)F)cc(C(F)(F)F)c1 [Example 816, N-(5-{[({(1S)-1-[3,5-bis(trifluoromethyl)phenyl]ethyl}amino)carbothioyl]amino}-2-pyridinyl)-1,2,3-thiadiazole-4-carboxamide] | > 7.5 | 0.0015 (≈ 0.00288 µM) |  |  |  | 
CC(NC(=S)Nc1ccc(NC(=O)c2cscn2)nc1)c1ccc(C(F)(F)F)cc1F (stereo not drawn) [Example 819, N-(5-{[({1-[2-fluoro-4-(trifluoromethyl)phenyl]ethyl}amino)carbothioyl]amino}-2-pyridinyl)-1,3-thiazole-4-carboxamide] | > 7.5 | 0.0022 (≈ 0.00469 µM) |  |  |  | 
COc1cc(OC)c(NC(=S)Nc2cccnc2NC(=O)c2ccco2)cc1Cl [Example 284, Furan-2-carboxylic acid {3-[3-(5-chloro-2,4-dimethoxy-phenyl)-thioureido]-pyridin-2-yl}-amide] | > 15 | 0.4 (≈ 0.924 µM) |  |  | 100 | 3 (≈ 6.93 µM)
CC(NC(=S)Nc1ccc(NC(=O)c2cscn2)nc1)c1cccc(Br)c1 (stereo not drawn) [Example 822, N-{5-[({[1-(3-bromophenyl)ethyl]amino}carbothioyl)amino]-2-pyridinyl}-1,3-thiazole-4-carboxamide] | > 7.5 | 0.05 (≈ 0.108 µM) |  |  |  | 
COc1cc(OC)c(NC(=S)Nc2ccc(NC(=O)c3ccccn3)nc2)cc1Cl [Example 499, Pyridine-2-carboxylic acid {5-[3-(5-chloro-2,4-dimethoxy-phenyl)-thioureido]-pyridin-2-yl}-amide] | > 10 | 3 (≈ 6.76 µM) |  |  | 25 | 5 (≈ 11.3 µM)
O=C(Nc1ccc(NC(=S)NCc2cc(C(F)(F)F)cc(C(F)(F)F)c2)cn1)c1csnn1 [Example 815, N-{5-[({[3,5-bis(trifluoromethyl)benzyl]amino}carbothioyl)amino]-2-pyridinyl}-1,2,3-thiadiazole-4-carboxamide] | > 7.5 | 0.0024 (≈ 0.00474 µM) |  |  |  | 
COc1cc(OC)c(NC(=S)Nc2ccc(NC(=O)c3ccccc3F)cn2)cc1Cl [Example 507, N-{6-[3-(5-Chloro-2,4-dimethoxy-phenyl)-thioureido]-pyridin-3-yl}-2-fluoro-benzamide] | 4 (≈ 8.68 µM) | 1.2 (≈ 2.6 µM) |  |  | 90 | 10 (≈ 21.7 µM)
COc1cc(OC)c(NC(=S)Nc2ccc(NC(=O)c3ccccc3F)nc2)cc1Cl [Example 289, N-{5-[3-(5-Chloro-2,4-dimethoxy-phenyl)-thioureido]-pyridin-2-yl}-2-fluoro-benzamide] | > 10 | > 10 |  |  | 30 | 0.6 (≈ 1.3 µM)
CC(NC(=S)Nc1ccc(NC(=O)c2cscn2)nc1)c1ccc(Cl)c(C(F)(F)F)c1 (stereo not drawn) [Example 825, N-(5-{[({1-[4-chloro-3-(trifluoromethyl)phenyl]ethyl}amino)carbothioyl]amino}-2-pyridinyl)-1,3-thiazole-4-carboxamide] | 6.12 (≈ 12.6 µM) | 0.003 (≈ 0.00617 µM) |  |  |  | 
COc1cc(OC)c(NC(=S)Nc2cccnc2NC(=O)c2csnn2)cc1Cl [Example 498, [1,2,3]Thiadiazole-4-carboxylic acid {3-[3-(5-chloro-2,4-dimethoxy-phenyl)-thioureido]-pyridin-2-yl}-amide] | > 10 | 0.14 (≈ 0.31 µM) |  |  | 14 | 6 (≈ 13.3 µM)
CC(NC(=S)Nc1ccc(NC(=O)c2cscn2)nc1)c1cc(F)cc(C(F)(F)F)c1 (stereo not drawn) [Example 820, N-(5-{[({1-[3-fluoro-5-(trifluoromethyl)phenyl]ethyl}amino)carbothioyl]amino}-2-pyridinyl)-1,3-thiazole-4-carboxamide] | 3.4 (≈ 7.24 µM) | 0.0013 (≈ 0.00277 µM) |  |  |  | 
O=C(Nc1ccc(NC(=S)Nc2cc(Cl)cc(Cl)c2)cn1)c1csnn1 [Example 515, [1,2,3]Thiadiazole-4-carboxylic acid {5-[3-(3,5-dichloro-phenyl)-thioureido]-pyridin-2-yl}-amide] | > 10 | > 10 |  |  | 30 | > 10
N-(6-{[({(1S)-1-[3,5-bis(trifluoromethyl)phenyl]ethyl}amino)carbothioyl]amino}-3-pyridinyl)-1,2,3-thiadiazole-4-carboxamide [Example 829] |  |  | >7.5 | 0.08 |  | 
CC(NC(=S)Nc1ccc(NC(=O)c2cscn2)nc1)c1ccc(Cl)cc1F (stereo not drawn) [Example 827, N-{5-[({[1-(4-chloro-2-fluorophenyl)ethyl]amino}carbothioyl)amino]-2-pyridinyl}-1,3-thiazole-4-carboxamide] |  | 0.026 (≈ 0.0596 µM) |  |  |  | 
